The values that follow come from patent US10011568B2, “Cyclohexyl pyridine derivative” (priority 2014, dated 2018).

One series concerns the target human NK1 receptor (Homo sapiens (Human), UniProt P25103). In words: Affinity for human NK1 receptor (125I-substance P receptor binding test, membrane fraction). As to conditions: membrane fraction of human NK1 receptor-expressing 293T cells; read-out: IC50 (nM), concentration required for 50% inhibition of 125I-substance P binding. Here is the method:
Affinity for Human NK1 Receptor
(3) Measurement of Binding Affinity to Human NK1 Receptor
(3-1) Preparation of Membrane Fraction from Human NK1 Receptor-Expressing Cells
Human NK1 receptor-expressing cells were prepared in a 175 cm^2 culture flask (Nippon Becton Dickinson). The formation of a complex of the human NK1 receptor expression plasmid and Lipofectamine 2000 was performed by calculating the culture area ratio and increasing the scale of the method described in the above 2-4 by the ratio. The human NK1 receptor-expressing cells were collected in a buffer solution for the membrane fraction preparation (50 mM Tris (Wako Pure Chemical), 120 mM sodium chloride (Wako Pure Chemical Industries), 5 mM potassium chloride (Wako Pure Chemical Industries), 1 mM ethylenediaminetetraacetic acid (Sigma), 0.002 mg/mL chymostatin (Peptide Institute), 0.04 mg/bacitracin (Wako Pure Chemical Industries), 0.005 mg/mL phosphoramidon (Peptide Institute) and 0.5 mM phenylmethylsulfonyl fluoride (Wako Pure Chemical Industries), pH7.4) and centrifuged at 1,880 g for 10 minutes, and the cell sediment was suspended in the buffer solution for the membrane fraction preparation. After freezing and thawing the cells once, the cells were homogenized using a Dounce-type homogenizer (cooled on ice, 1000 rpm, 20 times) The homogenized cell suspension was centrifuged at 20,000 rpm for 10 minutes, and the supernatant was removed to obtain cell sediment. The cell sediment was suspended again in the buffer solution for the membrane fraction preparation and homogenized using a Dounce-type homogenizer (cooled on ice, 1000 rpm, 30 times). The cell suspension was centrifuged at 20,000 rpm for 10 minutes, and the supernatant was removed to obtain cell sediment. The same homogenization and centrifugation were repeated again, and final cell sediment was obtained. The final cell sediment was suspended in a buffer solution for the receptor binding test (50 mM Tris (Wako Pure Chemical Industries). 3 mM manganese chloride (Wako Pure Chemical Industries), 0.002 mg/mL chymostatin (Peptide Institute), 0.04 mg/bacitracin (Wako Pure Chemical Industries) and 0.02% bovine serum albumin (Sigma), pH 7.4), and the protein concentration was measured using BCA Protein Assay Kit (Pierce).
(3-2) Receptor Binding Test
The buffer solution for the receptor binding test was dispensed to the wells of a 96-well assay plate (Greiner) at 22.5 μL/well. DMSO solutions of a test compound, which were prepared at an 80-time higher concentration using 100% dimethyl sulfoxide (DMSO), were added to the wells at 2.5 μL/well (final concentrations of 1 nM to 100 nM), and the solutions were mixed. As a radiolabeled ligand, ^125I-substance P (Substance P, [^125I]Tyr^8-, Perkin Elmer) was used. ^125I-substance P was diluted with the buffer solution for the receptor binding test to a concentration resulting in 125 pmol/25 μL/well and added to the 96-well assay plate, and the solutions were mixed. The membrane fraction prepared from the human NK1 receptor-expressing cells was diluted with the buffer solution for the receptor binding test to a concentration resulting in 8 to 10 μg/well, suspended until the suspension became in such a homogenous state that the suspension could flow through a 27G injection needle smoothly and then added to the 96-well assay plate at 150 μL/well. Then, the plate was incubated at room temperature for 60 minutes while shaking the plate. The reaction solutions were suction-filtered through a multiscreen 96-well filter plate (Millipore) which had been pre-treated with 0.3% polyethyleneimine, and the reaction was terminated by washing with a washing solution (50 mM Tris and 0.02% bovine serum albumin, pH 7.4) four times. The bottom of the microplate was dried at 60° C., and then 100 μL/well of MicroScint 20 (PerkinElmer) was dispensed to the wells. The top of the plate was sealed with TopSeal A (PerkinElmer), and the plate was shaken for 5 to 10 minutes. […]

The test system of series [1] is cisplatin-induced retching and vomiting. In words: Effect on cisplatin-induced acute and delayed emetic response. As to conditions: ferret, 0.01 or 0.1 mg/kg iv. It counts as in vivo. Here is the method: The vertical axes show the number of retching and vomiting (Retches+Vomits) (the mean+standard error of 3 examples of control group, the mean+standard error of 3 examples of the group intravenously administered with 0.01 mg/kg, and the mean+standard error of 3 examples of the group intravenously administered with 0.1 mg/kg).
Effect on Cisplatin-Induced Acute and Delayed Emetic Response
The test compound solution was prepared by dissolving the test compound in a vehicle (a mixture of 50% N,N-dimetlylacetamide (Wako Pure Chemical Industries). 30% propylene glycol (Wako Pure Chemical Industries), 4% 2-hydroxypropy-β-cyclodextrin (Wako Pure Chemical Industries) and 16% distilled water). The vehicle only was administered to the control group.
Under anesthesia with isoflurane, 0.01 mg/kg or 0.1 mg/kg of the test compound was intravenously administered to a male ferret (Marshall BioResources Japan) from the jugular vein. Cisplatin in saline, which was heated to 40-50° C., was intraperitoneally administered at 5 mg/kg one hour after the drug administration.

The next series addresses hERG channel (Homo sapiens (Human), UniProt Q12809). In words: Evaluation of hERG current (whole-cell patch clamp). It counts as cell-based. As to conditions: 10 μM, application for 10 minutes, HEK293 cells, n = 3, average ± standard error. Here is the method:
Evaluation of hERG Current
A dimethyl sulfoxide (DMSO) solution of the test compound with a concentration 1000 times higher than the evaluation concentration (10 μM) was prepared, and a solution with a final application concentration was prepared by diluting the solution. The hERG current was measured by a whole-cell method using a patch clamp system, where a cover glass on which hERG channel-expressing human embryonic kidney (HEK) 293 cells were seeded was placed on a perfusion bath and a perfusion solution was caused to flow. The change in the hERG channel-derived current caused by a pulse protocol (holding potential of −80 mV, depolarization pulse of +20 mV for 1.9 seconds, repolarization pulse of −50 mV for 2 seconds, stimulated at intervals of 15 seconds) of data acquisition/analysis software, pCLAMP9 (Axon instruments. Inc.) was measured. The measurement conditions were a flow rate of about 1.5 mL/min and a temperature of about 33° C. Two wave forms immediately before applying the test compound and two wave forms immediately after the application for 10 minutes were analyzed, and the statistical analysis was performed. The value before the application of the test compound was regarded as 100%, and the change rate based on the value was determined.
In the table, Ex. No. means the Example number, and the change rate is the average±the standard error.

human NK1 receptor, sequence (P25103 whole entry): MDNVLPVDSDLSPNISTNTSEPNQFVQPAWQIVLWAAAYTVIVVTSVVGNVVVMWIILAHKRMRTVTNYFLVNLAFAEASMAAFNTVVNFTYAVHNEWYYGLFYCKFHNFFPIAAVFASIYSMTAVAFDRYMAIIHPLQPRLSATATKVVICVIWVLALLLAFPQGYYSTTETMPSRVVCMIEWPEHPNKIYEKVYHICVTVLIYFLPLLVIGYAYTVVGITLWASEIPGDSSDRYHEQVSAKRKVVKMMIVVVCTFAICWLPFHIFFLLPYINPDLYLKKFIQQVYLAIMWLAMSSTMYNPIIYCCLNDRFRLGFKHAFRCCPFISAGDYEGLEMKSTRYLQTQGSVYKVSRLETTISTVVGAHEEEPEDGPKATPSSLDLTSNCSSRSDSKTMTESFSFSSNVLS
hERG channel, sequence (Q12809 whole entry): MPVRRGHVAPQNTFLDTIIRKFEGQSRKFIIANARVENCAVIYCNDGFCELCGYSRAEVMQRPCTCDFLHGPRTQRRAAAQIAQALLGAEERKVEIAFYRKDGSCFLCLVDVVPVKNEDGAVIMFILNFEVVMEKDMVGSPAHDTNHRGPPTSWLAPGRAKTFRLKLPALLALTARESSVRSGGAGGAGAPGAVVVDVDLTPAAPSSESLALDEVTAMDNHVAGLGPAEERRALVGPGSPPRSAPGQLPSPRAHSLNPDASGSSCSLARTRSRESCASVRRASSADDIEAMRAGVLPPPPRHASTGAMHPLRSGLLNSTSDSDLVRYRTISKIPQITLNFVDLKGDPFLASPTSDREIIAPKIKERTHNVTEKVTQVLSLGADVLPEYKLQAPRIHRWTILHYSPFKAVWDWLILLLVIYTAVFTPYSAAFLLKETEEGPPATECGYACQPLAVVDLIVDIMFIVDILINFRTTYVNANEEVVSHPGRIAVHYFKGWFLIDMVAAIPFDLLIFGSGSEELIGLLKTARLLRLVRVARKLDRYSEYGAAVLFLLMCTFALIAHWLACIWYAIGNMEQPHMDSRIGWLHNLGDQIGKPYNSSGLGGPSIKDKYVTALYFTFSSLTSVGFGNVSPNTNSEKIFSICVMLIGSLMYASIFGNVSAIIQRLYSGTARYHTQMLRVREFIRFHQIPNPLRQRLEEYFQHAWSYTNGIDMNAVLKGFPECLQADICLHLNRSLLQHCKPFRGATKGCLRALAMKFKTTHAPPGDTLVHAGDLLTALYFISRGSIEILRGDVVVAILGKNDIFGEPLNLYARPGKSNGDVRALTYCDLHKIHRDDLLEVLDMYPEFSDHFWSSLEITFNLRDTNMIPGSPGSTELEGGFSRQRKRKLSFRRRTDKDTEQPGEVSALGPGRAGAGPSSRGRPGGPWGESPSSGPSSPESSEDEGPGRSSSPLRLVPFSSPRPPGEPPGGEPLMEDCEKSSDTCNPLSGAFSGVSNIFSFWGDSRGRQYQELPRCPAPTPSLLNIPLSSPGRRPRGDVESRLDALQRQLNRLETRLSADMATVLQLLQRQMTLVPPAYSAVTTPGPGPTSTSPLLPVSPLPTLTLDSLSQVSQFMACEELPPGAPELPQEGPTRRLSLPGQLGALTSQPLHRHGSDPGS

Consider `Cc1cc(F)ccc1-c1cc(C2CCC(C(=O)O)CC2)ncc1N(C)C(=O)C(C)(C)c1cc(C(F)(F)F)cc(C(F)(F)F)c1` (centres unmarked) [Example 1, 4-[5-{[2-(3,5-Bistrifluoromethylphenyl)-2-methylpropionyl]methylamino}-4-(4-fluoro-2-methylphenyl)pyridin-2-yl]cyclohexanecarboxylic Acid], for which the IC50 at human NK1 receptor worked out at 1.45 nM.

`Cc1cc(F)ccc1-c1cc(C2CCCC(CC(=O)O)C2)ncc1N(C)C(=O)C(C)(C)c1cc(C(F)(F)F)cc(C(F)(F)F)c1` (centres unmarked) [Example 3, {3-[5-{[2-(3,5-Bistrifluoromethylphenyl)-2-methylpropionyl]methylamino}-4-(4-fluoro-2-methylphenyl)pyridin-2-yl]cyclohexyl}acetic Acid]: at human NK1 receptor, the IC50 amounted to 2.1 nM.

Consider `Cc1cc(F)ccc1-c1cc(C2(C)CCCC(CC(=O)O)C2)ncc1N(C)C(=O)C(C)(C)c1cc(C(F)(F)F)cc(C(F)(F)F)c1` (centres unmarked) [Example 4, {3-[5-{[2-(3,5-Bistrifluoromethylphenyl)-2-methylpropionyl]methylamino}-4-(4-fluoro-2-methylphenyl)pyridin-2-yl]-3-methylcyclohexyl}acetic Acid], for which the IC50 at human NK1 receptor amounted to 2.35 nM.

For `Cc1cc(F)ccc1-c1cc(C2CCC3(CC2)CC3C(=O)O)ncc1N(C)C(=O)C(C)(C)c1cc(C(F)(F)F)cc(C(F)(F)F)c1` (centres unmarked) [Example 7, 6-[5-{[2-(3,5-Bistrifluoromethylphenyl)-2-methylpropionyl]methylamino}-4-(4-fluoro-2-methylphenyl)pyridin-2-yl]spiro[2.5]octane-1-carboxylic Acid], the IC50 at human NK1 receptor is 1.63 nM.

With `Cc1cc(F)ccc1-c1cc(C2CCC(CC(=O)O)CC2)nc(C#N)c1N(C)C(=O)C(C)(C)c1cc(C(F)(F)F)cc(C(F)(F)F)c1` (centres unmarked) [Example 8, {4-[5-{[2-(3,5-Bistrifluoromethylphenyl)-2-methylpropionyl]methylamino}-6-cyano-4-(4-fluoro-2-methylphenyl)pyridin-2-yl]cyclohexyl}acetic Acid], the IC50 on human NK1 receptor is 4.01 nM.

In the case of `Cc1ccccc1-c1cc(C2CCC(CC(=O)O)CC2)ncc1N(C)C(=O)C(C)(C)c1cc(C(F)(F)F)cc(C(F)(F)F)c1` (centres unmarked) [Example 9, {4-[5-{[2-(3,5-Bistrifluoromethylphenyl)-2-methylpropionyl]methylamino}-4-ortho-tolylpyridine-yl]-cyclohexyl}acetic Acid], on human NK1 receptor, the IC50 worked out at 2.35 nM.

In the case of `Cc1cc(F)ccc1-c1cc(C2CCC(C(C)C(=O)O)CC2)ncc1N(C)C(=O)C(C)(C)c1cc(C(F)(F)F)cc(C(F)(F)F)c1` (centres unmarked) [Example 10, 2-{4-[5-{[2-(3,5-Bistrifluoromethylphenyl)-2-methylpropionyl]methylamino}-4-(4-fluoro-2-methylphenyl)pyridin-2-yl]cyclohexyl}propionic Acid], on human NK1 receptor, the IC50 was determined as 2.79 nM.

Take `Cc1cc(F)ccc1-c1cc([C@H]2CC[C@H](C(C)(C)C(=O)O)CC2)ncc1N(C)C(=O)C(C)(C)c1cc(C(F)(F)F)cc(C(F)(F)F)c1` [Example 11, trans-2-{4-[5-{[2-(3,5-Bistrifluoromethylphenyl)-2-methylpropionyl]methylamino}-4-(4-fluoro-2-methylphenyl)pyridin-2-yl]cyclohexyl}-2-methylpropionic Acid]: the IC50 on human NK1 receptor came out at 6.75 nM.

On to `Cc1cc(F)ccc1-c1cc([C@H]2CC[C@H](CC(=O)O)CC2)ncc1N(C)C(=O)C(C)(C)c1cc(C(F)(F)F)cc(C(F)(F)F)c1` [Example 13, trans-{4-[5-{[2-(3,5-Bistrifluoromethylphenyl)-2-methylpropionyl]methylamino}-4-(4-fluoro-2-methylphenyl)pyridin-2-yl]cyclohexyl}acetic acid], for which, at human NK1 receptor, the IC50 was found to be 1.62 nM. In series [1] (24 hours to 72 hours after cisplatin 5 mg/kg ip), the “number of retching and vomiting, delayed phase” value was “the inhibition of the number of retching and vomiting was observed”. The “number of retching and vomiting, acute phase” value in series [1] (up to 24 hours after cisplatin 5 mg/kg ip) is “the inhibition of the number of retching and vomiting was observed”. At hERG channel, the “hERG current change rate % (value before application = 100%)” value was found to be 81.1 ± 5.6%.

With `Cc1cc(F)ccc1-c1cc([C@H]2CC[C@@H](CC(=O)O)CC2)ncc1N(C)C(=O)C(C)(C)c1cc(C(F)(F)F)cc(C(F)(F)F)c1` [Example 14, cis-{4-[5-{[2-(3,5-bistrifluoromethylphenyl)-2-methylpropionyl]methylamino}-4-(4-fluoro-2-methylphenyl)pyridin-2-yl]cyclohexyl}acetic acid], the IC50 on human NK1 receptor is 2.21 nM. The “hERG current change rate % (value before application = 100%)” value on hERG channel was determined as 80.3 ± 3.9%.

On to `Cc1ccccc1-c1cc(C2CCC(CC(=O)O)CC2)nc(C#N)c1N(C)C(=O)C(C)(C)c1cc(C(F)(F)F)cc(C(F)(F)F)c1` (centres unmarked) [Example 16, [4-(5-{[2-(3,5-Bistrifluoromethylphenyl)-2-methylpropionyl]methylamino}-6-cyano-4-ortho-tolylpyridin-2-yl)cyclohexyl]acetic Acid], for which the IC50 at human NK1 receptor was found to be 2.78 nM.

With `Cc1cc(F)ccc1-c1cc([C@H]2CC[C@H](CC(=O)O)CC2)nc(C#N)c1N(C)C(=O)C(C)(C)c1cc(C(F)(F)F)cc(C(F)(F)F)c1` [Example 20, trans-{4-[5-{[2-(3,5-Bistrifluoromethylphenyl)-2-methylpropionyl]methylamino}-6-cyano--4-(4-fluoro-2-methylphenyl)-pyridin-2-yl]cyclohexyl}acetic acid], at human NK1 receptor, the IC50 turned out to be 3.27 nM.

Regarding `Cc1cc(F)ccc1-c1cc([C@H]2CC[C@@H](CC(=O)O)CC2)nc(C#N)c1N(C)C(=O)C(C)(C)c1cc(C(F)(F)F)cc(C(F)(F)F)c1` [Example 21, cis-{4-[5-{[2-(3,5-bistrifluoromethylphenyl)-2-methylpropionyl]methylamino}-6-cyano-4-(4-fluoro-2-methylphenyl)pyridin-2-yl]cyclohexyl}acetic acid], the IC50 on human NK1 receptor is 2.36 nM.
